# In patent US20150119429A1, “Iron Chelators as HIV-1 Inhibitors” (Howard University, priority 2012, published 2015):
# Assays:
# CEM cells = assay: Toxicity of iron chelators in CEM cells (calcein-AM fluorescence); format: cell-based, human; conditions: about 24 h at about 37° C., micromolar concentrations, FIG. 3
# [1] = system: VSVG-pseudotyped pNL4-3.Luc.R-E-(HIV-1 Luc) virus; assay: One round of HIV-1-Luc replication in CEM cells (luciferase activity); format: cell-based; conditions: for inhibition of HIV-1 replication compared with Bp4eT: CEM cells infected 18 h, treated 24 h at 37° C., FIG. 8; for IC50: Human immunodeficiency virus 1, CCRF-CEM, CEM cells infected about 18 h, treated about 24 h at about 37° C., FIG. 2, read-out: IC50 for inhibition of HIV-1 replication
# [2] = system: cellular iron in THP-1 cells; assay: Cellular iron chelation in THP-1 cells (calcein fluorescence); format: cell-based, human; conditions: THP-1 cells treated with FeS, loaded with calcein-AM, versus control SIH compound, FIG. 4
# Protocol: To assess iron chelating efficiency, human acute monocytic leukemia cell line (THP-1) cells were untreated (control) or treated with FeS for about 1 hr at about 37° C., and then loaded with iron sensor, calcein-AM for about 10 min at about 37° C. After washing with phosphate buffer solution (PBS), cells were treated with various iron chelators. In Figure. 4, calcein fluorescence was measured in a real-time PCR machine as a function of time. Fractional fluorescence (F-Fi)/Fi is proportional to the amount of chelatable iron.
# IkB gene = assay: Induction of IkB gene expression in 293T cells (real-time PCR); format: cell-based, human; conditions: about 24 hours of treatment, DDCt vs DMSO, FIG. 5
# heme oxygenase-1 gene = assay: Induction of heme oxygenase-1 expression in THP-1 cells (real-time PCR); format: cell-based, human; conditions: about 24 hours of treatment, DDCt, hemin at 100 μM, FIG. 6
Compound,toxicity (CEM cells),inhibition of HIV-1 replication compared with Bp4eT [1],IC50 [1] [nM],iron chelating efficiency (fractional calcein fluorescence) [2],expression of IkB (IkB gene),expression of heme oxygenase-1 (HO-1) (heme oxygenase-1 gene)
"O=C(Cc1ccccc1)c1ccccn1 [PPY, 2-phenyl-1-pyridin-2yl-ethanone, reference compound]","Neither PPY, nor representative PpYeT and PpYaT compounds show significant toxicity",,,,,
CCNC(=S)N/N=C(\Cc1ccccc1)c1ccccn1 [PpYeT],"Neither PPY, nor representative PpYeT and PpYaT compounds show significant toxicity",inhibit HIV-1 replication comparable to the effect of previously studied Bp4eT chelator,14,better than the control SIH compound,induce expression of IkB,induce expression of heme oxygenase-1 (HO-1)
"CCNC(=S)N/N=C(\c1ccccc1)c1ccccn1 [Bp4-eT, reference compound]",,,7.5,,,
C=CCNC(=S)N/N=C(\Cc1ccccc1)c1ccccn1 [PpYaT],"Neither PPY, nor representative PpYeT and PpYaT compounds show significant toxicity",inhibit HIV-1 replication comparable to the effect of previously studied Bp4eT chelator,14,better than the control SIH compound,induce expression of IkB,induce expression of heme oxygenase-1 (HO-1)
hemin [reference compound],,,,,,induced expression of HO-1
